According to publication PMC5663706, “Diversity oriented biosynthesis via accelerated evolution of modular gene clusters” (Nature Communications, 2017):

Experiments:
[1] = system: human macrophages challenged with B. pseudomallei; type: cell-based
Saccharomyces cerevisiae = Saccharomyces cerevisiae MIC assay (microdilution); type: cell-based; conditions: RPMI 1640 broth, 37 °C, 24 h, read-out: S. cerevisiae MIC
Experimental: We additionally assessed the rapalogs for antifungal activity using a standard Saccharomyces cerevisiae MIC assay. As expected, activity was similar to that observed for the mTORC1 pathway assay, likely through inhibition of TOR1 and TOR2.
Minimum Inhibitory Concentration (MIC) values for each compound were determined using the microdilution method. Briefly, stock solutions of the 6 test rapalogs (6.4 mg mL^−1 in methanol) were diluted 1:50 in RPMI 1640 broth (Sigma-Aldrich) to a working concentration of 128 µg ml^−1, and serially diluted in broth (1:2) in sterile, polypropylene 96-well plates, 100 µL per well. Saccharomyces cerevisiae was cultured in RPMI 1640 broth, 37 °C, 250 r.p.m., 18 h. […] A volume of 100 µL aliquots of this dilution were added to each well and mixed by gentle trituration. Plates were incubated at 37 °C for 24 h. The concentration of compound at which no visible growth was apparent was determined to be the MIC.

FKBP12 = FKBP12 (Homo sapiens, UniProt P62942); assay: FKBP12 PPIase inhibition assay; type: biochemical; conditions: 10 °C, pH 8.0, 6 nM FKBP12, 60 µM SUC-ALPF-pNA, read-out: FKBP12 K i
Chain of FKBP12 (P62942 whole entry, species assumed): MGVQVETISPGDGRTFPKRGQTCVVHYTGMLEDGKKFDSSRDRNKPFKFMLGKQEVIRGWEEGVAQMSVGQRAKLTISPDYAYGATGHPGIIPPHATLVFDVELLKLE

[2] = system: mTORC1 pathway (p-S6 formation)

SMILES | survival of human macrophages challenged with B. pseudomallei [1] | MIC (Saccharomyces cerevisiae) | Ki (FKBP12) | IC50 [2]
COC1CC2CCC(C)C(O)(O2)C(=O)C(=O)N2CCCCC2C(=O)OC(C(C)CC2CCC(O)CC2)CC=C(C)C(O)CC(=O)C(C)CC(C)C=CC=CC=C1C (stereo not shown) [Compound 7] | increase the survival | < 2 µg/mL | 7.9 nM | 100 nM
COC(CC1CCC(C)C(O)(CC(=O)N2CCCCC2C(=O)O)O1)C(C)=CC=CC=CC(C)CC1CCC(O)CC1 (stereo not shown) [Compound 2] | – | > 64 µg/mL | > 1000 nM | 1000 nM
CO[C@H]1C[C@@H]2CC[C@@H](C)[C@@](O)(O2)C(=O)C(=O)N2CCCC[C@H]2C(=O)O[C@H]([C@H](C)C[C@@H]2CC[C@@H](O)[C@H](OC)C2)CC(=O)[C@H](C)/C=C(\C)[C@@H](O)[C@@H](OC)C(=O)[C@H](C)C[C@H](C)/C=C/C=C/C=C/1C [Rapamycin, reference compound] | – | < 0.25 µg/mL | – | < 1 nM
COC1CC2CCC(C)C(O)(CC(=O)N3CCCCC3C(=O)OC(C(C)CC3CCC(O)CC3)CC(=O)C(C)CC(C)C=CC=CC=C1C)O2 (stereo not shown) [Compound 5] | – | < 64 µg/mL | 370 nM | 300 nM
COC1CC2CCC(C)C(O)(O2)C(=O)C(=O)N2CCCCC2C(=O)OC(C(C)CC2CCC(O)CC2)CC(=O)C(C)C=C(C)C(O)C(OC)C(=O)C(C)CC(C)C=CC=CC=C1C (stereo not shown) [Compound 1, 39-desmethoxyrapamycin] | – | < 0.25 µg/mL | 2.5 nM | –
C\C1=C/C=C/C=C/[C@@H](C)C[C@@H](C)C(=O)[C@H]2CC[C@@H](CC2)OC(=O)[C@@H]2CCCCN2C(=O)C(=O)[C@]2(O)O[C@@H](CC[C@H]2C)C[C@@H]1O [Compound 3] | – | > 64 µg/mL | 460 nM | > 1900 nM
CO[C@H]1C[C@@H]2CC[C@@H](C)[C@@](O)(O2)C(=O)C(=O)N2CCCC[C@H]2C(=O)O[C@H]([C@H](C)C[C@H]2CC[C@H](O)CC2)CC(O)CC(=O)[C@H](C)/C=C(\C)[C@@H](O)CC(=O)[C@H](C)C[C@H](C)/C=C/C=C/C=C/1C (stereo partly shown) [Compound 8] | – | < 2 µg/mL | 6.5 nM | –
